Results published in patent publication US9645147B2, “Recombinant polypeptide construct comprising Plasmodium falciparum circumsporozoite protein HLA class I restricted T-cell epitopes” (priority 2013, dated 2017).
“Also recorded” adds a separate entry of the source. Peptide text beside a SMILES is read from it.

Assays:
Assay type in all cases: cell-based, human
CD8+ T cells = assay: Intracellular cytokine staining (ICS), IFN-γ, CD8+ population; details: for ICS CD8+ T cell recall responses (in words): ICS assays, volunteers of Table 6; for CD8+ % (per cent of CD8+ T cells expressing IFN-γ): ICS, positive >0.03%
Protocol: (§1) Intracellular cytokine staining (ICS) was performed as published previously (Stewart, et al, Infect. Immun., 75: 2283-90 (2007)). Cryopreserved PBMC were thawed, washed, and resuspended at 10×10^6 cells per mL in complete medium. Peptides were used at 10 μg/mL and costimulatory antibodies anti-CD28 and […] (BD Bioscience, San Jose, Calif.) were used at 1 μg/mL. Stimulants were added to cells and incubated at 37° C. with 5% CO2 for 2 hours. Cells were stained with anti-CD3, anti-CD4, anti-CD8, anti-IFN-γ, anti-TNFα, and anti-IL2 and the entire available sample was acquired on a BD LSRII using FACSDiVa (BD Bioscience) software. Data were analyzed using FlowJo Software (Treestar, Inc.). The gating strategy involved progressively measuring total cells; viable cells; lymphocytes; T cells; CD4+ or CD8+ populations; and finally a specific cell type expressing a specific cytokine. Results were transferred to Prism (GraphPad) for graphing and statistical analysis. Data for peptides were corrected for media responses. A positive response was greater than the medium controls+3 standard deviations (0.03%).

CD4+ T cells = assay: Intracellular cytokine staining (ICS), IFN-γ, CD4+ population; details: for ICS CD4+ T cell recall responses (in words): ICS assays, volunteers of Table 6; for CD4+ % (per cent of CD4+ T cells expressing IFN-γ): ICS, positive >0.03%
Protocol: as §1

[1] = test system: PBMC depleted of T-cell subsets; assay: ELISpot IFN-γ after T-cell subset depletion (CD4+ or CD8+ Dynabeads, mock control); details: for confirmation as recalling CD8+ T cell responses: ELISpot depletion and ICS studies; for CD4+ depl. sfc/m: after CD4+ T cell depletion; for CD4+ depl. (%) percent change in ELISpot activity: after CD4+ T cell depletion vs control depletion; for CD8+ depl. sfc/m: after CD8+ T cell depletion; for CD8+ depl. (%) percent change in ELISpot activity: after CD8+ T cell depletion vs control depletion; for Control dept. sfc/m: mock (control) depletion
From the text: For characterization of ELISpot IFN-γ-producing cells by T-cell subset depletions PBMC were depleted of T-cell subsets using anti-human CD4+ or anti-CD8+ coated Dynabeads M-450 (Dynal, Great Neck, N.Y.) following the manufacturer's instructions. Mock depletion was done with Dynabeads coated with sheep anti-mouse IgG. Flow cytometry confirmed that T-cell subset depletions were >99% in all experiments. Data are presented as the spot-forming cells/million (sfc/m) and percent decrease or increase in activity after depletion.
To further evaluate the predicted epitopes, ELISpot depletion assays were performed using PBMC from four volunteers stimulated with six predicted and tested epitopes. CD8+ T cell depletion reduced responses to Cp1 and Cp9 by 82%100%.

[2] = test system: PBMC from volunteers immunized with Ad-CA or Ad-C; assay: IFN-γ ELISpot assay with cryopreserved PBMC of immunized volunteers; details: for Epitope sfc/m: Table 4; for ELISpot response to synthesized epitope (in words): volunteers, positive = p<0.05, at least doubling and at least ten sfc over negative control
Protocol: Previous studies have confirmed that recall-T cell responses, as assayed by ELISpot, are detected using cryopreserved PBMCs although such responses are generally of a lower magnitude than fresh cells (Sedegah, et al., Malar J., 9: 241 (2011)).
The positive control was commercially obtained Class I Peptide Pool Plus (Anaspec, USA). Negative control was media with all supplements but no antigen-specific stimulant.
Throughout the studies, IFN-γ ELISpot assays were conducted as previously described (Sedegah, et al., Malar J., 9: 241 (2011); Wang, et al., PNAS (USA), 98: 10817-22 (2001)). Cryopreserved PBMC were suspended in 100 μL complete medium and stimulated with CSP peptides in 100 μL of complete medium at a final concentration of 10 μg/mL of each peptide tested (Wang, et al., PNAS (USA), 98: 10817-22 (2001)).
Cultures were incubated for 36 hours at 37° C., 5% CO2. Depending on availability of cells, each PBMC sample was assayed in duplicate, triplicate, or quadruplicate and the number of IFN-γ-secreting spot forming cells (sfc) was counted using an automated ELISpot reader (AID, GmbH, Germany). In duplicate assays, all values were used in analysis. […] The mean number of sfcs obtained in negative control wells was subtracted from the value of each test well from the same sample. Negative counts generated by this background subtraction were converted to zero. The mean number of spots of the test sample was then calculated and expressed as spot forming cells/million (sfc/m). A positive response was defined as a significant difference (p=<0.05) between average of the number of spot forming cells (sfc) in test wells and the average of negative control wells (Student's two tailed t-test), and at least a doubling of sfc in test wells relative to negative control wells, and a difference of at least ten sfc between test and negative control wells (Sedegah, et al., PLoS One, 6: e24586 (2011)).

Compound	ICS CD8+ T cell recall responses (in words) (CD8+ T cells)	CD8+ % (per cent of CD8+ T cells expressing IFN-γ) (CD8+ T cells; V156) [%]	ICS CD4+ T cell recall responses (in words) (CD4+ T cells)	CD4+ % (per cent of CD4+ T cells expressing IFN-γ) (CD4+ T cells; V156) [%]	confirmation as recalling CD8+ T cell responses [1]	CD4+ depl. sfc/m ([1]; V156) [sfc/m]	CD4+ depl. (%) percent change in ELISpot activity ([1]; V156) [%]	CD8+ depl. sfc/m ([1]; V156) [sfc/m]	CD8+ depl. (%) percent change in ELISpot activity ([1]; V156) [%]	Control dept. sfc/m ([1]; V156) [sfc/m]	ELISpot response to synthesized epitope (in words) [2]	also measured
CC[C@H](C)[C@H](NC(=O)[C@@H](N)CC(C)C)C(=O)N[C@@H](CCSC)C(=O)N[C@H](C(=O)N[C@@H](CC(C)C)C(=O)N[C@@H](CO)C(=O)N[C@@H](Cc1ccccc1)C(=O)N[C@@H](CC(C)C)C(=O)N[C@@H](Cc1ccccc1)C(=O)O)C(C)C [Epitope E17a] (H-LIMVLSFLF-OH; N-terminus and C-terminus assumed)	positive	0.26	negative	0.01	confirmed as recalling CD8+ T cell responses	264	−18	85	−82	307	recognized; also recorded: positive; also recorded: demonstrated activity	CD8+ % (per cent of CD8+ T cells expressing IFN-γ) (CD8+ T cells; V40): 0.54%; CD4+ % (per cent of CD4+ T cells expressing IFN-γ) (CD4+ T cells; V40): 0.02%; CD4+ depl. sfc/m ([1]; V40): 210 sfc/m; CD4+ depl. (%) percent change in ELISpot activity ([1]; V40): −11%; CD8+ depl. sfc/m ([1]; V40): 23 sfc/m; CD8+ depl. (%) percent change in ELISpot activity ([1]; V40): −90%; Control dept. sfc/m ([1]; V40): 236 sfc/m; Epitope sfc/m ([2]; volunteer 37 (Ad-C), synthesized epitope, second assay (second value of the cell)): 38 sfc/m; Epitope sfc/m ([2]; volunteer 37 (Ad-C), synthesized epitope, single value or first of two assays): 55 sfc/m; Epitope sfc/m ([2]; volunteer 40 (Ad-C), synthesized epitope, first of two assays): 290 sfc/m; Epitope sfc/m ([2]; volunteer 40 (Ad-C), synthesized epitope, second assay (second value of the cell)): 166 sfc/m
SVSSFLFVEA (listed as Plasmodium falciparum) [Epitope E19, CSP aa 9-18]	weakly positive	–	–	–	confirmed as recalling CD8+ T cell responses	–	–	–	–	–	moderately active; also recorded: demonstrated activity	CD8+ % (per cent of CD8+ T cells expressing IFN-γ) (CD8+ T cells; V125): 0.06%; CD4+ % (per cent of CD4+ T cells expressing IFN-γ) (CD4+ T cells; V125): 0.02%; CD4+ depl. sfc/m ([1]; V125): 17 sfc/m; CD4+ depl. (%) percent change in ELISpot activity ([1]; V125): −78%; CD8+ depl. sfc/m ([1]; V125): 72 sfc/m; CD8+ depl. (%) percent change in ELISpot activity ([1]; V125): −9%; Control dept. sfc/m ([1]; V125): 79 sfc/m; percent reduction of ELISpot response after CD8+ T cell depletion ([1]; text summary over the four volunteers of Table 6): 9%; Epitope sfc/m ([2]; volunteer 125 (Ad-CA), synthesized 8-10mer epitope): 33 sfc/m
CC(C)C[C@H](NC(=O)[C@H](C)NC(=O)[C@H](CCC(=O)O)NC(=O)[C@@H](NC(=O)[C@@H](N)Cc1ccccc1)C(C)C)C(=O)N[C@@H](Cc1ccccc1)C(=O)N[C@@H](CCC(N)=O)C(=O)N[C@@H](CCC(=O)O)C(=O)N[C@@H](Cc1ccc(O)cc1)C(=O)O [Epitope E2]	positive	–	negative	–	confirmed as recalling CD8+ T cell responses	–	–	–	–	–	active; also recorded: demonstrated activity	CD8+ % (per cent of CD8+ T cells expressing IFN-γ) (CD8+ T cells; V69): 0.48%; CD4+ % (per cent of CD4+ T cells expressing IFN-γ) (CD4+ T cells; V69): 0.00%; CD4+ depl. sfc/m ([1]; V69): 254 sfc/m; CD4+ depl. (%) percent change in ELISpot activity ([1]; V69): −15%; CD8+ depl. sfc/m ([1]; V69): 8 sfc/m; CD8+ depl. (%) percent change in ELISpot activity ([1]; V69): −97%; Control dept. sfc/m ([1]; V69): 296 sfc/m; Epitope sfc/m ([2]; volunteer 69 (Ad-C), synthesized 8-10mer epitope): 268 sfc/m; Epitope sfc/m ([2]; volunteer 127 (Ad-CA), synthesized 8-10mer epitope): 89 sfc/m
CC(C)C[C@H](NC(=O)[C@H](C)NC(=O)[C@H](CCC(=O)O)NC(=O)[C@@H](NC(=O)[C@H](Cc1ccccc1)NC(=O)[C@H](CC(C)C)NC(=O)[C@@H](N)Cc1ccccc1)C(C)C)C(=O)N[C@@H](Cc1ccccc1)C(=O)N[C@@H](CCC(N)=O)C(=O)O [Epitope E1a] (H-FLFVEALFQ-OH; N-terminus and C-terminus assumed)	positive	0.34	negative	0.03	confirmed as recalling CD8+ T cell responses	215	−12	91	−73	245	demonstrated activity	–
